Literature values, collected in patent US9775802B2, “Method for preparing suspensions of low-solubility materials” (Bausch & Lomb Incorporated, priority 2009, dated 2017).
Counter-ions that a name gives are not always drawn. Like-named read-outs stand apart in the source and are kept apart here. One block for each compound: values may come before it.

Details: for solubility in water, estimated: 'estimated to be'

SMILES: C[C@@H]1C[C@H]2[C@@H]3CCC4=CC(=O)C=C[C@]4(C)[C@@]3(F)[C@@H](O)C[C@]2(C)[C@@]1(O)C(=O)COP(=O)(O)O [dexamethasone phosphate disodium salt]
solubility in water (in words): soluble in water

SMILES: O=C(O)Cc1ccccc1Nc1c(Cl)cccc1Cl [diclofenac sodium salt]
solubility in water (temperature not stated): about 50 mg/mL

SMILES: O=C(O)Cc1ccccc1Nc1c(Cl)cccc1Cl [diclofenac]
solubility in water, estimated: about 0.002 mg/mL

SMILES: COc1c(N2C[C@@H]3CCCN[C@@H]3C2)c(F)cc2c(=O)c(C(=O)O)cn(C3CC3)c12 [moxifloxacin]
solubility in water, estimated: about 0.17 mg/mL

Now from value to compound:

solubility in water (37° C.): about 39 mg/mL
SMILES: CC[C@H]1OC(=O)[C@H](C)[C@@H](O[C@H]2C[C@@](C)(OC)[C@@H](O)[C@H](C)O2)[C@H](C)[C@@H](O[C@@H]2O[C@H](C)C[C@H](N(C)C)[C@H]2O)[C@](C)(O)C[C@@H](C)CN(C)[C@H](C)[C@@H](O)[C@]1(C)O [azithromycin dihydrate]

solubility in water (temperature not stated): about 0.5 mg/mL
SMILES: CC[C@H]1OC(=O)[C@H](C)[C@@H](O[C@H]2C[C@@](C)(OC)[C@@H](O)[C@H](C)O2)[C@H](C)[C@@H](O[C@@H]2O[C@H](C)C[C@H](N(C)C)[C@H]2O)[C@](C)(O)C[C@@H](C)CN(C)[C@H](C)[C@@H](O)[C@]1(C)O [azithromycin]

solubility in water (25° C.): about 0.1 mg/mL
SMILES: C[C@@H]1C[C@H]2[C@@H]3CCC4=CC(=O)C=C[C@]4(C)[C@@]3(F)[C@@H](O)C[C@]2(C)[C@@]1(O)C(=O)CO [dexamethasone]
